# Data published in the NIST ThermoML archive (doi:10.1016/j.jct.2007.03.010).
# Numbers after ± are expanded uncertainties.
# Experiment: excess molar enthalpy (molar enthalpy of mixing); xn = mol fraction of the nth substance listed
# Details: 101 kPa, Liquid, Calvet calorimetry
compound,measurement,setting,value
CC(O)CN (stereo unspecified) [1-amino-2-propanol] + O,excess molar enthalpy,"298.15 K, x1 = 0.03",-0.119 ± 0.00502 kcal/mol
same,excess molar enthalpy,"298.15 K, x1 = 0.0501",-0.186 ± 0.00765 kcal/mol
same,excess molar enthalpy,"298.15 K, x1 = 0.0697",-0.241 ± 0.0098 kcal/mol
same,excess molar enthalpy,"298.15 K, x1 = 0.1002",-0.324 ± 0.0131 kcal/mol
same,excess molar enthalpy,"298.15 K, x1 = 0.1505",-0.419 ± 0.017 kcal/mol
same,excess molar enthalpy,"298.15 K, x1 = 0.2012",-0.488 ± 0.0198 kcal/mol
same,excess molar enthalpy,"298.15 K, x1 = 0.2994",-0.572 ± 0.0232 kcal/mol
same,excess molar enthalpy,"298.15 K, x1 = 0.3496",-0.593 ± 0.0239 kcal/mol
same,excess molar enthalpy,"298.15 K, x1 = 0.3993",-0.592 ± 0.0239 kcal/mol
same,excess molar enthalpy,"298.15 K, x1 = 0.4465",-0.579 ± 0.0237 kcal/mol
same,excess molar enthalpy,"298.15 K, x1 = 0.494",-0.554 ± 0.0225 kcal/mol
same,excess molar enthalpy,"298.15 K, x1 = 0.6033",-0.481 ± 0.0196 kcal/mol
same,excess molar enthalpy,"298.15 K, x1 = 0.7155",-0.365 ± 0.0148 kcal/mol
same,excess molar enthalpy,"298.15 K, x1 = 0.7954",-0.27 ± 0.011 kcal/mol
same,excess molar enthalpy,"298.15 K, x1 = 0.8847",-0.173 ± 0.00717 kcal/mol
same,excess molar enthalpy,"313.15 K, x1 = 0.0304",-0.134 ± 0.0055 kcal/mol
same,excess molar enthalpy,"313.15 K, x1 = 0.0701",-0.253 ± 0.0103 kcal/mol
same,excess molar enthalpy,"313.15 K, x1 = 0.1001",-0.326 ± 0.0134 kcal/mol
same,excess molar enthalpy,"313.15 K, x1 = 0.15",-0.421 ± 0.0172 kcal/mol
same,excess molar enthalpy,"313.15 K, x1 = 0.1999",-0.491 ± 0.0201 kcal/mol
same,excess molar enthalpy,"313.15 K, x1 = 0.3021",-0.584 ± 0.0237 kcal/mol
same,excess molar enthalpy,"313.15 K, x1 = 0.352",-0.601 ± 0.0239 kcal/mol
same,excess molar enthalpy,"313.15 K, x1 = 0.4015",-0.598 ± 0.0239 kcal/mol
same,excess molar enthalpy,"313.15 K, x1 = 0.5022",-0.556 ± 0.0227 kcal/mol
same,excess molar enthalpy,"313.15 K, x1 = 0.591",-0.487 ± 0.0198 kcal/mol
same,excess molar enthalpy,"313.15 K, x1 = 0.692",-0.392 ± 0.016 kcal/mol
same,excess molar enthalpy,"313.15 K, x1 = 0.7864",-0.283 ± 0.0115 kcal/mol
same,excess molar enthalpy,"313.15 K, x1 = 0.8808",-0.174 ± 0.00717 kcal/mol
same,excess molar enthalpy,"323.15 K, x1 = 0.0301",-0.114 ± 0.00478 kcal/mol
same,excess molar enthalpy,"323.15 K, x1 = 0.05",-0.171 ± 0.00693 kcal/mol
same,excess molar enthalpy,"323.15 K, x1 = 0.0705",-0.244 ± 0.01 kcal/mol
same,excess molar enthalpy,"323.15 K, x1 = 0.0999",-0.308 ± 0.0127 kcal/mol
same,excess molar enthalpy,"323.15 K, x1 = 0.1507",-0.401 ± 0.0163 kcal/mol
same,excess molar enthalpy,"323.15 K, x1 = 0.1993",-0.473 ± 0.0194 kcal/mol
same,excess molar enthalpy,"323.15 K, x1 = 0.2999",-0.551 ± 0.0225 kcal/mol
same,excess molar enthalpy,"323.15 K, x1 = 0.3533",-0.577 ± 0.0234 kcal/mol
same,excess molar enthalpy,"323.15 K, x1 = 0.4045",-0.587 ± 0.0239 kcal/mol
same,excess molar enthalpy,"323.15 K, x1 = 0.507",-0.554 ± 0.0225 kcal/mol
same,excess molar enthalpy,"323.15 K, x1 = 0.5849",-0.497 ± 0.0203 kcal/mol
same,excess molar enthalpy,"323.15 K, x1 = 0.6741",-0.42 ± 0.017 kcal/mol
same,excess molar enthalpy,"323.15 K, x1 = 0.8125",-0.261 ± 0.0108 kcal/mol
same,excess molar enthalpy,"323.15 K, x1 = 0.9073",-0.144 ± 0.00598 kcal/mol
CN(CCO)CCO [N-methyldiethanolamine] + O,excess molar enthalpy,"313.15 K, x1 = 0.1004",-0.337 ± 0.0136 kcal/mol
same,excess molar enthalpy,"313.15 K, x1 = 0.1501",-0.431 ± 0.0174 kcal/mol
same,excess molar enthalpy,"313.15 K, x1 = 0.1986",-0.496 ± 0.0201 kcal/mol
same,excess molar enthalpy,"313.15 K, x1 = 0.2593",-0.543 ± 0.022 kcal/mol
same,excess molar enthalpy,"313.15 K, x1 = 0.3681",-0.552 ± 0.0225 kcal/mol
same,excess molar enthalpy,"313.15 K, x1 = 0.4312",-0.535 ± 0.0217 kcal/mol
same,excess molar enthalpy,"313.15 K, x1 = 0.4941",-0.495 ± 0.0201 kcal/mol
same,excess molar enthalpy,"313.15 K, x1 = 0.593",-0.417 ± 0.017 kcal/mol
same,excess molar enthalpy,"313.15 K, x1 = 0.7778",-0.25 ± 0.0103 kcal/mol
same,excess molar enthalpy,"313.15 K, x1 = 0.8203",-0.208 ± 0.00837 kcal/mol
"CN(C)CCO [2-(N,N-dimethylamino)ethanol] + O",excess molar enthalpy,"298.15 K, x1 = 0.0299",-0.168 ± 0.00717 kcal/mol
same,excess molar enthalpy,"298.15 K, x1 = 0.0705",-0.347 ± 0.0141 kcal/mol
same,excess molar enthalpy,"298.15 K, x1 = 0.1008",-0.443 ± 0.0182 kcal/mol
same,excess molar enthalpy,"298.15 K, x1 = 0.1501",-0.545 ± 0.0222 kcal/mol
same,excess molar enthalpy,"298.15 K, x1 = 0.2052",-0.618 ± 0.0239 kcal/mol
same,excess molar enthalpy,"298.15 K, x1 = 0.301",-0.68 ± 0.0287 kcal/mol
same,excess molar enthalpy,"298.15 K, x1 = 0.349",-0.692 ± 0.0287 kcal/mol
same,excess molar enthalpy,"298.15 K, x1 = 0.4106",-0.69 ± 0.0287 kcal/mol
same,excess molar enthalpy,"298.15 K, x1 = 0.4544",-0.673 ± 0.0287 kcal/mol
same,excess molar enthalpy,"298.15 K, x1 = 0.5365",-0.615 ± 0.0239 kcal/mol
same,excess molar enthalpy,"298.15 K, x1 = 0.6599",-0.48 ± 0.0196 kcal/mol
same,excess molar enthalpy,"298.15 K, x1 = 0.7996",-0.298 ± 0.0122 kcal/mol
same,excess molar enthalpy,"298.15 K, x1 = 0.9156",-0.133 ± 0.0055 kcal/mol
same,excess molar enthalpy,"313.15 K, x1 = 0.0307",-0.168 ± 0.00693 kcal/mol
same,excess molar enthalpy,"313.15 K, x1 = 0.0695",-0.314 ± 0.0129 kcal/mol
same,excess molar enthalpy,"313.15 K, x1 = 0.1196",-0.46 ± 0.0186 kcal/mol
same,excess molar enthalpy,"313.15 K, x1 = 0.2038",-0.584 ± 0.0237 kcal/mol
same,excess molar enthalpy,"313.15 K, x1 = 0.2979",-0.652 ± 0.0263 kcal/mol
same,excess molar enthalpy,"313.15 K, x1 = 0.349",-0.665 ± 0.0263 kcal/mol
same,excess molar enthalpy,"313.15 K, x1 = 0.4063",-0.663 ± 0.0263 kcal/mol
same,excess molar enthalpy,"313.15 K, x1 = 0.4925",-0.618 ± 0.0239 kcal/mol
same,excess molar enthalpy,"313.15 K, x1 = 0.5885",-0.526 ± 0.0215 kcal/mol
same,excess molar enthalpy,"313.15 K, x1 = 0.7046",-0.403 ± 0.0165 kcal/mol
same,excess molar enthalpy,"313.15 K, x1 = 0.7891",-0.295 ± 0.012 kcal/mol
same,excess molar enthalpy,"313.15 K, x1 = 0.9076",-0.145 ± 0.00598 kcal/mol
same,excess molar enthalpy,"323.15 K, x1 = 0.0301",-0.158 ± 0.00669 kcal/mol
same,excess molar enthalpy,"323.15 K, x1 = 0.0705",-0.315 ± 0.0129 kcal/mol
same,excess molar enthalpy,"323.15 K, x1 = 0.1217",-0.436 ± 0.0177 kcal/mol
same,excess molar enthalpy,"323.15 K, x1 = 0.2027",-0.556 ± 0.0227 kcal/mol
same,excess molar enthalpy,"323.15 K, x1 = 0.3001",-0.629 ± 0.0263 kcal/mol
same,excess molar enthalpy,"323.15 K, x1 = 0.3486",-0.643 ± 0.0263 kcal/mol
same,excess molar enthalpy,"323.15 K, x1 = 0.4001",-0.641 ± 0.0263 kcal/mol
same,excess molar enthalpy,"323.15 K, x1 = 0.4995",-0.597 ± 0.0239 kcal/mol
same,excess molar enthalpy,"323.15 K, x1 = 0.6093",-0.489 ± 0.0198 kcal/mol
same,excess molar enthalpy,"323.15 K, x1 = 0.7618",-0.309 ± 0.0127 kcal/mol
same,excess molar enthalpy,"323.15 K, x1 = 0.9197",-0.111 ± 0.00454 kcal/mol
NCCCO [3-amino-1-propanol] + O,excess molar enthalpy,"298.15 K, x1 = 0.0299",-0.0966 ± 0.00406 kcal/mol
same,excess molar enthalpy,"298.15 K, x1 = 0.0705",-0.222 ± 0.00908 kcal/mol
same,excess molar enthalpy,"298.15 K, x1 = 0.1203",-0.364 ± 0.0148 kcal/mol
same,excess molar enthalpy,"298.15 K, x1 = 0.2",-0.509 ± 0.0208 kcal/mol
same,excess molar enthalpy,"298.15 K, x1 = 0.2982",-0.598 ± 0.0239 kcal/mol
same,excess molar enthalpy,"298.15 K, x1 = 0.3452",-0.62 ± 0.0263 kcal/mol
same,excess molar enthalpy,"298.15 K, x1 = 0.4067",-0.625 ± 0.0263 kcal/mol
same,excess molar enthalpy,"298.15 K, x1 = 0.4989",-0.588 ± 0.0239 kcal/mol
same,excess molar enthalpy,"298.15 K, x1 = 0.593",-0.519 ± 0.021 kcal/mol
same,excess molar enthalpy,"298.15 K, x1 = 0.7515",-0.366 ± 0.0148 kcal/mol
same,excess molar enthalpy,"298.15 K, x1 = 0.8969",-0.17 ± 0.00693 kcal/mol
same,excess molar enthalpy,"313.15 K, x1 = 0.0297",-0.115 ± 0.00478 kcal/mol
same,excess molar enthalpy,"313.15 K, x1 = 0.0702",-0.245 ± 0.01 kcal/mol
same,excess molar enthalpy,"313.15 K, x1 = 0.12",-0.375 ± 0.0153 kcal/mol
same,excess molar enthalpy,"313.15 K, x1 = 0.2007",-0.504 ± 0.0206 kcal/mol
same,excess molar enthalpy,"313.15 K, x1 = 0.3015",-0.607 ± 0.0239 kcal/mol
same,excess molar enthalpy,"313.15 K, x1 = 0.3458",-0.629 ± 0.0263 kcal/mol
same,excess molar enthalpy,"313.15 K, x1 = 0.3982",-0.633 ± 0.0263 kcal/mol
same,excess molar enthalpy,"313.15 K, x1 = 0.5034",-0.597 ± 0.0239 kcal/mol
same,excess molar enthalpy,"313.15 K, x1 = 0.6045",-0.508 ± 0.0206 kcal/mol
same,excess molar enthalpy,"313.15 K, x1 = 0.7564",-0.329 ± 0.0134 kcal/mol
same,excess molar enthalpy,"313.15 K, x1 = 0.9333",-0.115 ± 0.00478 kcal/mol
same,excess molar enthalpy,"323.15 K, x1 = 0.0298",-0.154 ± 0.00621 kcal/mol
same,excess molar enthalpy,"323.15 K, x1 = 0.0718",-0.29 ± 0.0117 kcal/mol
same,excess molar enthalpy,"323.15 K, x1 = 0.1192",-0.397 ± 0.0163 kcal/mol
same,excess molar enthalpy,"323.15 K, x1 = 0.1996",-0.512 ± 0.0208 kcal/mol
same,excess molar enthalpy,"323.15 K, x1 = 0.3018",-0.608 ± 0.0239 kcal/mol
same,excess molar enthalpy,"323.15 K, x1 = 0.3493",-0.632 ± 0.0263 kcal/mol
same,excess molar enthalpy,"323.15 K, x1 = 0.3947",-0.637 ± 0.0263 kcal/mol
same,excess molar enthalpy,"323.15 K, x1 = 0.5038",-0.597 ± 0.0239 kcal/mol
same,excess molar enthalpy,"323.15 K, x1 = 0.605",-0.517 ± 0.021 kcal/mol
same,excess molar enthalpy,"323.15 K, x1 = 0.7594",-0.34 ± 0.0139 kcal/mol
same,excess molar enthalpy,"323.15 K, x1 = 0.8801",-0.18 ± 0.00741 kcal/mol
